In publication PMC8154566, “Scaffold-Hopping Strategy on a Series of Proteasome Inhibitors Led to a Preclinical Candidate for the Treatment of Visceral Leishmaniasis” (Journal of Medicinal Chemistry, 2021):
In brackets after ≈: the same amount, converted by molar mass. Read-outs that look alike come from different tables or passages of the source.

Experiments:
L. donovani amastigotes = experiment: INMAC assay: intramacrophage L. donovani in differentiated THP-1 cells; type: cell-based, Leishmania donovani; details: for loss of potency: INMAC, relative to compound 4; for IC50 / EC50: Leishmania donovani; for IC50: THP-1, read-out: LdInMac pIC50 (converted); for EC50: THP-1
Description: (§1) Intramacrophage L. donovani Assay. This assay was conducted as previously described, except for […]

THP-1 cells = experiment: THP-1 host cell read-out of the INMAC assay; type: cell-based; details: Homo sapiens
Description: as §1

[1] = Kinetic aqueous solubility by CLND; type: physicochemical
Description: We had successfully used these criteria in the hit to lead stage to identify compounds for in vivo proof-of-concept studies in another program, which subsequently led to the identification of preclinical candidate DDD853651/GSK3186899 active against CRK12.[7] […] A pharmacokinetic (PK) study was thus performed, dosed at 10 mg/kg po and 3 mg/kg iv. […] With the limited knowledge of the PK/PD drivers for the treatment of VL, we considered this to be a suitable profile for the progression of 4 into a previously reported mouse efficacy model of VL,[6],[7],[17],[18] where it was dosed twice daily at 50 mg/kg ip in order to further maximize exposure and give the best chance of achieving proof-of-concept.
(§2) Intramacrophage L. donovani Assay. This assay was conducted as previously described, except for compound exposure time, which was 96 h instead of 72 h.4
(§3) Intrinsic Clearance. This assay was conducted as previously described.5 Aqueous Solubility. This assay was conducted as previously described.6
(§4) FaSSIF Solublity. This assay was conducted as previously described.5,7
(§5) In vivo Mouse Efficacy Studies. In vivo studies were carried out as previously described, with minor modifications.7 Briefly: Control drug used was Miltefosine (30 mg/kg orally, twice daily for 5 days), vehicle used was 10% (v/v) dimethyl sulfoxide (DMSO), 40% polyethylene glycol 400, and 50% deionized water (10 Ml/kg orally, twice daily for 5 days) and mice were treated with test compound intraperitoneally (50 mg/kg twice daily for 5 days). 5
(§6) All regulated procedures on living animals were carried out under the authority of a project license issued by the Home Office under the Animals (Scientific Procedures) Act 1986, as amended in 2012 (and in compliance with EU Directive EU/2010/63). Infected animals had access to food and water ad libitum and were housed under a 12 hour light/dark photoperiod. Animals used in these experiments were female NMRI and Balb/c mice (Harlan, UK).
(§7) Test compound DDD01008714 was dosed orally (P.O.) at 10 mg free base/kg (dose volume 10 mL/kg; dose vehicle: 10% (vol/vol) dimethyl sulfoxide (DMSO), 40% polyethylene glycol 400 (PEG400) and 50% deionized water) to female NMRI mice (n = 3) or intravenously (I.V.) at 3 mg free base/kg (dose volume 5 mL/kg; dose vehicle: 10% (vol/vol) dimethyl sulfoxide (DMSO) and 90% Saline) to female Balb/c mice (n = 3). Blood samples (10 μL) where taken from the tail vein of […]

[2] = FaSSIF (fasted state simulated intestinal fluid) solubility; type: physicochemical
Description: as §2, §3, §4, §5, §6, §7

[3] = Mouse liver microsomal intrinsic clearance; type: in vitro ADME; details: for Mouse CLi: mouse liver microsomes; for Cli (mouse, ml/min/g): supplementary csv
Description: as §2, §3, §4, §5, §6, §7

[4] = Table 2, at least three replicates, SD ≤0.4, read-out: INMAC (pEC50) (converted)
[5] = THP-1, Table 2, read-out: THP-1 (pEC50) (converted)
[6] = THP-1, supplementary csv, read-out: THP1 pIC50 (converted)
[7] = Table 2, kinetic, CLND, read-out: Aq. solubility
[8] = supplementary csv, read-out: Aqueous Solubility
[9] = Table 5, at least three replicates, SD ≤0.4, read-out: INMAC pEC50 (converted)
[10] = THP-1, Table 5, read-out: THP-1 pEC50 (converted)
[11] = Table 5, kinetic, CLND, read-out: Aq. solubility
[12] = THP-1, read-out: THP1 pIC50 (converted)
[13] = Table 6, at least three replicates, SD ≤0.4, read-out: INMAC pEC50 (converted)
[14] = THP-1, Table 6, read-out: THP-1 pEC50 (converted)
[15] = Table 6, kinetic, CLND, read-out: Aq. solubility

Compound	IC50 (THP-1 cells; [6]) [µM]	solubility ([2]; supplementary csv) [µM]	Cli (mouse, ml/min/g) [3] [mL/min/g]	solubility [1, 8] [µM]	EC50 (L. donovani amastigotes; [9]) [µM]	EC50 (THP-1 cells; [10]) [µM]	solubility [1, 11] [µM]	solubility at 4 h ([2]; pH 6.5, Table 5) [µM]	Mouse CLi ([3]; Table 5) [mL/min/g]	EC50 (L. donovani amastigotes; [13]) [µM]	EC50 (THP-1 cells; [14]) [µM]	solubility [1, 15] [µM]	solubility at 4 h ([2]; pH 6.5, Table 6) [µM]	Mouse CLi ([3]; Table 6) [mL/min/g]	further results
O=C(Nc1nccc(-c2cn3cc(N4CCOCC4)cnc3n2)n1)N1CCCC1 [Compound 12, N-(4-(6-Morpholinoimidazo[1,2-a]pyrimidin-2-yl)pyrimidin-2-yl)pyrrolidine-1-carboxamide]	> 50.1	> 1000	<0.5												loss of potency (L. donovani amastigotes): > 10 fold; IC50 (L. donovani amastigotes): > 50.1 µM; EC50 (L. donovani amastigotes; [4]): > 50.1 µM; EC50 (THP-1 cells; [5]): > 50.1 µM; solubility [1, 7]: ≥ 470 µM; Mouse CLi ([3]; Table 2): <0.5 mL/min/g
O=C(Nc1cnnc(-c2cn3cc(N4CCOCC4)cnc3n2)c1)N1CCCC1 [Compound 13, N-(6-(6-Morpholinoimidazo[1,2-a]pyrimidin-2-yl)pyridazin-4-yl)pyrrolidine-1-carboxamide]	> 50.1	290 (≈ 114 µg/mL)	<0.5	360 (≈ 142 µg/mL)											loss of potency (L. donovani amastigotes): > 10 fold; IC50 (L. donovani amastigotes): > 50.1 µM; EC50 (L. donovani amastigotes; [4]): > 50.1 µM; EC50 (THP-1 cells; [5]): > 50.1 µM; solubility [1, 7]: 355 µM (≈ 140 µg/mL); solubility ([2]; Table 2): > 100 µM; solubility at 4 h ([2]; pH 6.5, Table 2): 286 µM (≈ 113 µg/mL); Mouse CLi ([3]; Table 2): <0.5 mL/min/g
O=C(Nc1ccc(F)c(-c2cn3ncc(N4CCOCC4)cc3n2)c1)N1CCCC1 [Compound 15, N-[4-Fluoro-3-(7-morpholinoimidazo[1,2-b]pyridazin-2-yl)phenyl]pyrrolidine-1-carboxamide]	> 50.1		2		> 50.1	> 50.1	58 (≈ 23.8 µg/mL)	22 (≈ 9.03 µg/mL)	2.0						IC50 (L. donovani amastigotes): > 50.1 µM; INMAC pEC50 (L. donovani amastigotes; Table 5, at least three replicates, SD ≤0.4): inactive
O=C(Nc1ccc(F)c(-c2cc3cc(N4CCOCC4)cnc3o2)c1)N1CCCC1 [Compound 20, N-(4-Fluoro-3-(5-morpholinofuro[2,3-b]pyridin-2-yl)phenyl)pyrrolidine-1-carboxamide]	> 50.1		4		0.0501	> 50.1	25 (≈ 10.3 µg/mL)	7 (≈ 2.87 µg/mL)	4.0						
O=C(Nc1ccc(F)c(-c2cc3nc(N4CCOCC4)cnc3o2)c1)N1CCCC1 [Compound 21, N-[4-Fluoro-3-(2-morpholinofuro[2,3-b]pyrazin-6-yl)phenyl]pyrrolidine-1-carboxamide]	> 50.1		2.8		0.158	> 50.1	70 (≈ 28.8 µg/mL)	15 (≈ 6.17 µg/mL)	2.8						
O=C(Nc1ccc(F)c(-c2cn3nc(N4CCOCC4)cnc3n2)c1)N1CCCC1 [Compound 23, N-(4-Fluoro-3-(2-morpholinoimidazo[1,2-b][1,2,4]triazin-6-yl)phenyl)pyrrolidine-1-carboxamide]		140 (≈ 57.6 µg/mL)	0.9	130 (≈ 53.5 µg/mL)	0.398	> 50.1	126 (≈ 51.8 µg/mL)		0.9						IC50 (THP-1 cells; [12]): > 50.1 µM
O=C(Nc1ccc(F)c(-c2nc3ncc(N4CCOCC4)cn3n2)c1)N1CCCC1 [Compound 25, N-(4-Fluoro-3-(6-morpholino-[1,2,4]triazolo[1,5-a]pyrimidin-2-yl)phenyl)pyrrolidine-1-carboxamide]		73 (≈ 30 µg/mL)	0.5	400 (≈ 165 µg/mL)	0.631	> 50.1	354 (≈ 146 µg/mL)	74 (≈ 30.4 µg/mL)	<0.5						IC50 (THP-1 cells; [12]): > 50.1 µM
O=C(Nc1ccc(F)c(-c2cc3cc(N4CCOCC4)cnn3n2)c1)N1CCCC1 [Compound 26, N-(4-Fluoro-3-(5-morpholinopyrazolo[1,5-b]pyridazin-2-yl)phenyl)pyrrolidine-1-carboxamide]	> 50.1		1.7		0.158	> 50.1	51 (≈ 20.9 µg/mL)	12 (≈ 4.93 µg/mL)	1.7						
O=C(Nc1ccc(F)c(-c2ccn3c(-c4ccccc4)cnc3n2)c1)N1CCCC1 [Compound 28, N-(4-Fluoro-3-(3-phenylimidazo[1,2-a]pyrimidin-7-yl)phenyl)pyrrolidine-1-carboxamide]	50.1	8 (≈ 3.21 µg/mL)	2.5							0.251	50.1	39 (≈ 15.7 µg/mL)	7 (≈ 2.81 µg/mL)	2.5	
O=C(Nc1ccc(F)c(-c2ccn3c(-c4ccccn4)cnc3n2)c1)N1CCCC1 [Compound 29, N-(4-Fluoro-3-(3-(pyridin-2-yl)imidazo[1,2-a]pyrimidin-7-yl)phenyl)pyrrolidine-1-carboxamide]	> 50.1	270 (≈ 109 µg/mL)	1.8							0.398	> 50.1	74 (≈ 29.8 µg/mL)	273 (≈ 110 µg/mL)	1.8	
CC(C)c1cnc2nc(-c3cc(NC(=O)N4CCCC4)ccc3F)ccn12 [Compound 30, N-(4-Fluoro-3-(3-isopropylimidazo[1,2-a]pyrimidin-7-yl)phenyl)pyrrolidine-1-carboxamide]	50.1	70 (≈ 25.7 µg/mL)	4.6	240 (≈ 88.2 µg/mL)						1.26	50.1	231 (≈ 84.9 µg/mL)	71 (≈ 26.1 µg/mL)	4.6	
CC(C)Cc1cnc2nc(-c3cc(NC(=O)N4CCCC4)ccc3F)ccn12 [Compound 31, N-(4-Fluoro-3-(3-isobutylimidazo[1,2-a]pyrimidin-7-yl)phenyl)pyrrolidine-1-carboxamide]	63.1	180 (≈ 68.7 µg/mL)	15	180 (≈ 68.7 µg/mL)						0.501	63.1	182 (≈ 69.4 µg/mL)	178 (≈ 67.9 µg/mL)	15	
O=C(Nc1ccc(F)c(-c2ccn3c(CN4CCOCC4)cnc3n2)c1)N1CCCC1 [Compound 32, N-(4-Fluoro-3-(3-(morpholinomethyl)imidazo[1,2-a]pyrimidin-7-yl)phenyl)pyrrolidine-1-carboxamide]	63.1	730 (≈ 310 µg/mL)	16							10	63.1	≥ 348	728 (≈ 309 µg/mL)	16	
O=C(Nc1ccc(F)c(-c2ccn3c(N4CCCCC4)cnc3n2)c1)N1CCCC1 [Compound 34, N-(4-Fluoro-3-(3-(piperidin-1-yl)imidazo[1,2-a]pyrimidin-7-yl)phenyl)pyrrolidine-1-carboxamide]	50.1		8.4	360 (≈ 147 µg/mL)						0.501	50.1	358 (≈ 146 µg/mL)	32 (≈ 13.1 µg/mL)	8.4	
O=C(Nc1ccc(F)c(-c2ccn3c(N4CCNCC4)cnc3n2)c1)N1CCCC1 [Compound 35, N-(4-Fluoro-3-(3-(piperazin-1-yl)imidazo[1,2-a]pyrimidin-7-yl)phenyl)pyrrolidine-1-carboxamide]	> 50.1		<0.5	≥ 330						> 50.1	> 50.1	≥ 333	5 (≈ 2.05 µg/mL)	<0.5	IC50 (L. donovani amastigotes): > 50.1 µM
